In BigSolDB 2.1:

O=C(O)c1ccc(C(=O)O)o1
solubility (mole fraction)
Settings	in MIBK	in acetic acid	in acetonitrile	in isobutanol	in methanol	in methyl acetate	in n-butanol	in water
313.15 K	0.000136	0.000235	6.11e-05	0.00168	0.00428	7.78e-05	0.00266	0.000203
318.15 K	0.000184	0.000272	9.15e-05	0.00198	0.00489	0.000113	0.00302	0.000225
323.15 K	0.000253	0.000331	0.000112	0.0023	0.0054	0.000164	0.00346	0.000283
328.15 K	0.000296	0.000404	0.000136	0.0027	0.0068	0.000238	0.00408	0.00037
333.15 K	0.000338	0.000478	0.000166	0.00323	0.00801	0.000285	0.00469	0.000421
338.15 K	0.000429	0.000555	0.000212	0.00372	0.00869	0.000377	0.00524	0.000465
343.15 K	0.000536	0.000717	0.000248	0.00412	0.00894	0.000464	0.00572	0.000598
348.15 K	0.000631	0.00082	0.000278	0.00482	–	0.000549	0.00663	0.000641
353.15 K	0.000666	0.000965	0.000341	0.00548	–	0.00062	0.00741	0.000781
358.15 K	0.000721	0.00115	0.000409	0.00607	–	0.000659	0.0082	0.000908
363.15 K	0.000863	0.00134	0.000487	0.00682	–	0.000721	0.00916	0.0011
